From PMC10354759, “Preclinical assessment of IRDye800CW‐labeled gastrin‐releasing peptide receptor‐targeting peptide for near infrared‐II imaging of brain malignancies” (Bioengineering & Translational Medicine, 2023)
Where two headings read alike, the source gives them in different places.

Columns and labels:
GRPR of GL261 cell line = target: T1, GRPR of GL261 cell line (Mus musculus, UniProt P21729); experiment: Targeted cell imaging (uptake and RM26 blocking); assay type: cell-based; conditions: 500 μM RM26 before 100 μM IRDye800-RM26, imaged after 1 h
T1 construct: host or cells: GL261 (stably expressing firefly luciferase)
T1 sequence (P21729 whole entry): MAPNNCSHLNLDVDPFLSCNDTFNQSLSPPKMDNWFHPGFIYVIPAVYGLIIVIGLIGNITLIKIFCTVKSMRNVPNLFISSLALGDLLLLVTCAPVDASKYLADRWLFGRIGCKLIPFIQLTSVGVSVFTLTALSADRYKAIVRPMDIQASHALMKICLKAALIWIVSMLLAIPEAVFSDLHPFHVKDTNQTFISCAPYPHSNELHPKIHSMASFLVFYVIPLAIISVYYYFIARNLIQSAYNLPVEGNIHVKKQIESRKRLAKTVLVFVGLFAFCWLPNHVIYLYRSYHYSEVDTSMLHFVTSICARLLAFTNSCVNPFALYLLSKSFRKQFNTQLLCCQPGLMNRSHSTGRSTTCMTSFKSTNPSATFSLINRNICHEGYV
Excerpt: Subsequently, we washed the cells with 1 × PBS 3 times and scanned then using fluorescence microscopy (BZ‐X800; KEYENCE, Japan). The NIR emission was collected with an excitation filter (775 ± 50 nm), dichromatic mirror (810 nm), and a barrier filter (845 ± 55 nm).

[1] = cited from earlier work; for brightness (NIR-I) higher than ICG: 100 μM
Excerpt: Near‐infrared fluorescence imaging technology is widely used for FGS due to its non‐invasive, real‐time, and multi‐dimensional monitoring characteristics. The combination of the reducing photon scattering, light absorption, and tissue autofluorescence provides a clear view deep into the body, capable of extraordinarily high SBR that are only accomplishable when moving from the NIR‐I to NIR‐II region. Because some organic dyes are relatively easy to synthesize, modifiable, and have low biological toxicity, several studies recently explored clinically approved or commercially available NIR‐I cya ...

[2] = system: glioblastoma (GL261 cells); experiment: Histological colocalization of fluorescence signal and tumor (Manders' coefficients); assay type: in vivo, C57BL/6 mouse; conditions: 120 mg/kg intraperitoneally, 4 h post-injection
Experimental: We equally analyzed the histological colocalization of the fluorescence signal and cancer cells. […] Frozen sectioning was performed after fixation of the brain specimen in Tissue‐Tek O.C.T. using a cryostat. The fixed tissue was sliced axially at 30 μm thickness and mounted on a slide for immediate fluorescence micro imaging with the BZ‐X800. Multiple slices were performed across the tumor. Subsequently, we stained some slices with H&E according to common standard procedure, and imaged them with BZ‐X800 or Vectra Polaris. […] The mouse was euthanized and prepared for section imaging at 4 h post‐injection. The 5‐ALA emission was collected with an excitation filter (545 ± 25 nm), dichromatic mirror (565 nm), and a barrier filter (605 ± 70 nm). Quantification of the colocalization of tumor on H&E staining, 5‐ALA, and NIR were performed with the JACoP plugin for ImageJ using the Manders' coefficients.[28] Values of these coefficients range from 0 to 1 and express the fraction of intensity in a channel located in pixels where there is above threshold intensity in the other color channel.

## D‐Phe‐Gln‐Trp‐Ala‐Val‐Gly‐His‐Sta‐Leu‐NH2 [RM26]
GRPR of GL261 cell line
  effect of RM26 blocking on IRDye800-RM26 uptake: reduced

## CC1(C)C(/C=C/C=C/C=C/C=C2\N(CCCCS(=O)(=O)O)c3ccc4ccccc4c3C2(C)C)=[N+](CCCCS(=O)(=O)[O-])c2ccc3ccccc3c21 [ICG, indocyanine green]
[1]; bovine blood, 0.01 mg/mL
  brightness relative to IRDye800CW: 12.3 times
[1]; in BSA
  concentration with maximum fluorescence intensity: 10000 to 20000 ng/mL

## CC1(C)C(/C=C/C2=C(Oc3ccc(S(=O)(=O)O)cc3)C(=C/C=C3/N(CCCCS(=O)(=O)O)c4ccc(S(=O)(=O)[O-])cc4C3(C)C)/CCC2)=[N+](CCCCCC(=O)O)c2ccc(S(=O)(=O)O)cc21 [IRDye800]
[1]; FBS
  brightness (NIR-I) higher than ICG: 1.8 fold
[1]; NIR-I, serum
  quantum yield (QY): 12%
[1]; PBS
  brightness (NIR-I) higher than ICG: 3.3 fold

## NCC(=O)CCC(=O)O [5-ALA, 5‐aminolevulinic acid]
[2]
  fraction of glioblastoma on 5-ALA overlapping tumor on H&E (Manders' coefficient): 99.8%
  fraction of tumor on H&E overlapping tumor on 5-ALA (Manders' coefficient): 63.8%
